Tests used:
[1] = Stability in human plasma assessed as parent compound remaining at 40 uM measured after 0.5 hrs by LC-MS/MS analysis; assay type: ADME, cell-free; settings: read-out: Stability
[2] = Metabolic bioavailability in human liver microsomes at 0.1 uM preincubated with MgCl2 for 10 mins followed by NADPH addition measured within 60 mins by LC-MS/MS analysis; assay type: ADME, Microsome
[3] = Stability in human liver microsomes assessed as parent compound remaining at 0.1 uM preincubated with MgCl2 for 10 mins followed by NADPH addition measured immediately by LC-MS/MS analysis; assay type: ADME, Microsome; settings: read-out: Stability
[4] = Stability in human liver microsomes assessed as parent compound remaining at 0.1 uM preincubated with MgCl2 for 10 mins followed by NADPH addition measured after 60 mins by LC-MS/MS analysis; assay type: ADME, Microsome; settings: read-out: Stability
[5] = Cytotoxicity against human HuH7 cells infected with HCV genotype 1b replicon after 72 hrs by CellTiter-Fluor reagent based fluorescence assay; assay type: cell-based, Huh-7
[6] = Stability in human liver microsomes assessed as parent compound remaining at 0.1 uM preincubated with MgCl2 for 10 mins followed by NADPH addition measured after 7 mins by LC-MS/MS analysis; assay type: ADME, Microsome; settings: read-out: Stability
[7] = Stability in human plasma assessed as parent compound remaining at 40 uM measured immediately by LC-MS/MS analysis; assay type: ADME, cell-free; settings: read-out: Stability
[8] = Stability in human plasma assessed as parent compound remaining at 40 uM measured after 5 hrs by LC-MS/MS analysis; assay type: ADME, cell-free; settings: read-out: Stability
[9] = Stability in human liver microsomes assessed as parent compound remaining at 0.1 uM preincubated with MgCl2 for 10 mins followed by NADPH addition measured after 30 mins by LC-MS/MS analysis; assay type: ADME, Microsome; settings: microsomes, 0.5 h, 0.1 µM
[10] = Stability in human plasma assessed as parent compound remaining at 40 uM measured after 1 hr by LC-MS/MS analysis; assay type: ADME, cell-free; settings: read-out: Stability
[11] = system: Hepatitis C virus; assay: Antiviral activity against HCV genotype 1b replicon infected in human HuH7 cells after 72 hrs by bright-glo luciferase reporter gene assay; assay type: functional, organism-based, Hepacivirus hominis; settings: subtype 1b, Huh-7, 72 h
[12] = Half life in human plasma at 40 uM by LC-MS/MS analysis; assay type: ADME, cell-free
[13] = Half life in human liver microsomes at 0.1 uM preincubated with MgCl2 for 10 mins followed by NADPH addition by LC-MS/MS analysis; assay type: ADME, Microsome; settings: microsomes, 0.1 µM
[14] = Stability in human liver microsomes assessed as parent compound remaining at 0.1 uM preincubated with MgCl2 for 10 mins followed by NADPH addition measured after 17 mins by LC-MS/MS analysis; assay type: ADME, Microsome; settings: microsomes, 17 min, 0.1 µM
[15] = system: Hepatitis C virus; assay: Antiviral activity against HCV genotype 1b replicon infected in human HuH7 cells at 10 uM after 72 hrs by bright-glo luciferase reporter gene assay relative to control; assay type: functional, Hepacivirus hominis; settings: subtype 1b, Huh-7, 72 h
[16] = Stability in human plasma assessed as parent compound remaining at 40 uM measured after 2 hrs by LC-MS/MS analysis; assay type: ADME, cell-free; settings: read-out: Stability
[17] = system: Hepatitis C virus; assay: Antiviral activity against HCV genotype 1b replicon infected in human HuH7 cells at 100 uM after 72 hrs by bright-glo luciferase reporter gene assay relative to control; assay type: functional, Hepacivirus hominis; settings: subtype 1b, Huh-7, 72 h
[18] = system: Hepatitis C virus; assay: Antiviral activity against HCV genotype 1b replicon infected in human HuH7 cells at 20 uM after 72 hrs by bright-glo luciferase reporter gene assay relative to control; assay type: functional, Hepacivirus hominis; settings: subtype 1b, Huh-7, 72 h

SMILES | CC50 at 72 h [5] | EC50 [11] | inhibition at 20 µM [18] | further results
CC(C)OC(=O)OC(C)n1c(=O)ccn([C@@H]2O[C@H](CO[P@@](=O)(N[C@@H](C)C(=O)OC(C)C)Oc3ccccc3)[C@@H](O)[C@@]2(C)F)c1=O (some centres undefined) | > 10 µM | 0.22 µM | – | remaining at 0.5 h, 40 µM [1]: 92.8%; Fh at 1 h, 0.1 µM [2]: 11.2%; remaining at 0 min, 0.1 µM [3]: 100%; remaining at 1 h, 0.1 µM [4]: 0%; remaining at 7 min, 0.1 µM [6]: 51.2%; remaining at 0 h, 40 µM [7]: 100%; remaining at 5 h, 40 µM [8]: 78.9%; Stability [9]: 2.1%; remaining at 1 h, 40 µM [10]: 90%; half-life at 40 µM [12]: 16.4 h; t1/2 [13]: 0.225 h; Stability [14]: 12.8%; inhibition at 10 µM [15]: 99.8%; remaining at 2 h, 40 µM [16]: 85.3%
CC(C)OC(=O)[C@H](C)N[P@](=O)(OC[C@@]1(C)O[C@@H](n2ccnc(N)c2=O)[C@H](O)[C@@H]1O)Oc1ccccc1 | > 100 µM | 19.5 µM | – | inhibition at 100 µM [17]: 85.1%
CCNc1nccn([C@@H]2O[C@H](CO)[C@@H](O)[C@@]2(C)O)c1=O | > 100 µM | > 100 µM | – | –
CC(C)OC(=O)[C@H](C)N[P@](=O)(OC[C@H]1O[C@@H](n2ccc(OCc3ccccc3)nc2=O)[C@](C)(F)[C@@H]1O)Oc1ccccc1 | > 20 µM | > 20 µM | 0% | –
CC(C)OC(=O)[C@H](C)N[P@](=O)(OC[C@H]1O[C@@H](n2ccc(=O)[nH]c2=O)[C@](C)(F)[C@@H]1O)Oc1ccccc1 [SOFOSBUVIR] | > 20 µM | 0.18 µM | 99.9% | –
CCNc1nccn([C@@H]2O[C@H](CO[P@@](=O)(N[C@@H](C)C(=O)OC(C)C)Oc3ccccc3)[C@@H](O)[C@@]2(C)O)c1=O | > 100 µM | > 100 µM | – | –
C[C@@]1(O)[C@H](O)[C@@H](CO)O[C@H]1n1cc(Br)ncc1=O | > 100 µM | > 100 µM | – | –
C=CCOc1ccn([C@@H]2O[C@H](CO[P@@](=O)(N[C@@H](C)C(=O)OC(C)C)Oc3ccccc3)[C@@H](O)[C@@]2(C)F)c(=O)n1 | > 20 µM | > 20 µM | 0% | –
CCNc1nccn([C@@H]2O[C@](C)(CO)[C@@H](O)[C@H]2O)c1=O | > 100 µM | > 100 µM | – | –
CC(C)OC(=O)[C@H](C)N[P@](=O)(OC[C@H]1O[C@@H](n2cc(C(N)=O)ncc2=O)[C@](C)(O)[C@@H]1O)Oc1ccccc1 | > 100 µM | > 100 µM | – | –
CCOC(=O)n1c(=O)ccn([C@@H]2O[C@H](CO[P@@](=O)(N[C@@H](C)C(=O)OC(C)C)Oc3ccccc3)[C@@H](O)[C@@]2(C)F)c1=O | > 10 µM | 0.65 µM | – | inhibition at 10 µM [15]: 100%
CC(C)=CCOc1ccn([C@@H]2O[C@H](CO[P@@](=O)(N[C@@H](C)C(=O)OC(C)C)Oc3ccccc3)[C@@H](O)[C@@]2(C)F)c(=O)n1 | > 20 µM | 0.2 µM | 99.9% | –
C[C@]1(CO)O[C@@H](n2ccnc(N)c2=O)[C@H](O)[C@@H]1O | > 100 µM | > 100 µM | – | –
CC(C)OC(=O)[C@H](C)N[P@](=O)(OC[C@H]1O[C@@H](n2ccc(=O)n(C(=O)OCc3ccccc3)c2=O)[C@](C)(F)[C@@H]1O)Oc1ccccc1 | > 10 µM | 0.5 µM | – | inhibition at 10 µM [15]: 99.3%
CC(C)OC(=O)[C@H](C)N[P@](=O)(OC[C@H]1O[C@@H](n2ccc(Oc3ccccc3)nc2=O)[C@](C)(F)[C@@H]1O)Oc1ccccc1 | > 20 µM | > 20 µM | 0% | –
CC(C)OC(=O)[C@@H](C)N[P@@](=O)(OC[C@H]1O[C@@H](n2ccnc(N)c2=O)[C@](C)(O)[C@@H]1O)Oc1ccccc1 | > 100 µM | > 100 µM | – | –

Source: ChEMBL document CHEMBL4411327, “Discovery of pyrimidine nucleoside dual prodrugs and pyrazine nucleosides as novel anti-HCV agents” (Bioorg Med Chem, 2019)
